Each structure is given as a SMILES string.

The target of the test is Carbonic anhydrase 2 [F130V] (Homo sapiens, UniProt P00918, F130V). Put plainly: In vitro binding of inhibitor to hCA-II. Conditions: pH 7.4; 37 °C. As for the experimental part: Inhibitor binding to CA II was determined using a fluorescence competition assay. Displacement of dansylamide and binding of the inhibitor was determined by measuring and comparing the average fluorescence intensities of the treated versus control reactions. Binding constants were estimated from a Dixon plot of the data (reciprocal of the average fluorescence intensity versus inhibitor concentration)

The molecule `NS(=O)(=O)c1ccc(C(=O)NCc2cccc(F)c2F)cc1` [N-[(2,3-difluorophenyl)methyl]-4-sulfamoylbenzamide] registered a Kd of 1.6 nM.

As to `NS(=O)(=O)c1ccc(C(=O)NCc2c(F)c(F)c(F)c(F)c2F)cc1` [N-[(2,3,4,5,6-pentafluorophenyl)methyl]-4-sulfamoylbenzamide], the Kd came out at 2 nM.

`NS(=O)(=O)c1ccc(C(=O)NCc2ccccc2F)cc1` [N-[(2-fluorophenyl)methyl]-4-sulfamoylbenzamide] showed a Kd of 2.3 nM.

In the case of `NS(=O)(=O)c1ccc(C(=O)NCc2c(F)cccc2F)cc1` [N-[(2,6-difluorophenyl)methyl]-4-sulfamoylbenzamide], the Kd was 3.9 nM.

Values taken from BindingDB's records for doi:10.1021/ja011034p (University of Pennsylvania, 2001).
